From ChEMBL document CHEMBL1828616, “Novel terpene based 1,4,2-dioxazoles: synthesis, characterization, molecular properties and screening against Entamoeba histolytica” (Eur J Med Chem, 2011) come the findings set out here.

For one series, the system named is Entamoeba histolytica. Put plainly: Antiamoebic activity against Entamoeba histolytica HM-1:IMSS by microdilution method. It counts as functional, organism-based. A general note: Broth dilution looks for growth in wells or tubes with falling amounts of substance.
Series [1] can be described thus: Cytotoxicity against rat H9c2 cells assessed as cell viability at 3.13 to 25 uM after 48 hrs by MTT assay. It counts as cell-based. Particulars: read-out: Activity. On the technique in general: Tetrazolium dyes change colour on reduction, which living cells bring about.
For series [2], the system named is H9c2. Put plainly: Cytotoxicity against rat H9c2 cells assessed as cell viability at 50 uM after 48 hrs by MTT assay. It counts as cell-based. Particulars: h9c2, 48 h.
Series [3] relates to H9c2. The series can be described thus: Cytotoxicity against rat H9c2 cells assessed as cell viability at 100 uM after 48 hrs by MTT assay. It counts as cell-based. The conditions noted are these: h9c2, 48 h.
The test system of series [4] is H9c2. The series can be described thus: (§1) Cytotoxicity against rat H9c2 cells assessed as cell viability at 200 uM after 48 hrs by MTT assay. In kind it is cell-based. The conditions noted are these: h9c2, 48 h, 200 µM.
Series [5] deals with H9c2. The series can be described thus: Cytotoxicity against rat H9c2 cells assessed as cell viability after 48 hrs by MTT assay. In kind it is cell-based. Particulars: H9c2, 48 h.
The nature of series [6]: Selectivity index, ratio of IC50 for rat H9c2 cells to IC50 for Entamoeba histolytica HM-1:IMSS.
Series [7] in a line: Octanol-water partition coefficient, log P of the compound. In kind it is physicochemical.
A short description of a further series: in vitro. The conditions noted are these: rat, H9c2 cells.
Series [8] in a line: as §1. It counts as cell-based. Particulars: H9c2 cells, read-out: Activity.

Description for in vitro: Cytotoxicity against rat H9c2 cells assessed as cell viability at 3.13 uM after 48 hrs by MTT assay

For orientation: IC50 means the concentration at which inhibition is half-maximal. A word on the logP: it is the decadic logarithm of the partition coefficient of the neutral form, usually between octanol and water. Consider `CC1(c2ccco2)ON=C(c2ccc3c(c2)OCO3)O1` (configuration not stated), for which the results for the IC50 in the series with Entamoeba histolytica and in the series with H9c2 [5] were 1100 nM and more than 200000 nM, respectively. In addition, the viability at 48 h in series [1] was not below 82%. Besides, the Activity result in the series with H9c2 [2], with H9c2 [3] and with H9c2 [4] was “Toxic” in each case. Further, the “Ratio IC50” value in series [6] is listed as more than 181.81. In series [7], the logP was 2.99.
As to `CC(C)=CCC/C(C)=C/C1=NOC(C)(c2cccs2)O1` (configuration not stated), the midpoint of inhibition in the series with Entamoeba histolytica, the IC50, lay at 3010 nM. For the same molecule, the logP in series [7] was 5.67.
For the molecule `c1ccc(C2=NOC(c3ccc4c(c3)OCO4)O2)nc1` (configuration not stated), the values for the IC50 with Entamoeba histolytica and in the series with H9c2 [5] were 1060 nM and 85000 nM, respectively. The viability at 48 h in series [1] was not below 82%. The Activity entry in the series with H9c2 [2], with H9c2 [3] and with H9c2 [4] was “Toxic” in each case. The “Ratio IC50” value in series [6] is given as more than 80.18. In series [7], this molecule displayed a logP of 1.8.
`CC1(c2cccs2)ON=C(c2ccc3c(c2)OCO3)O1` (configuration not stated) registered an IC50 in the series on Entamoeba histolytica of 2680 nM. For the same molecule, in series [7], the logP worked out at 3.51.
With `CC(C)=CCC/C(C)=C/C1ON=C(c2cccs2)O1` (configuration not stated), it took 3050 nM to reach half-maximal inhibition in the series with Entamoeba histolytica (IC50). The logP in [7] was 4.74.
Take `Cc1ncc([N+](=O)[O-])n1CCO` [METRONIDAZOLE]: the Activity result in the series on H9c2 [2], in the series with H9c2 [3] and with H9c2 [4] was “Toxic” throughout. Also, in the series with H9c2 [5], the IC50 was more than 200000 nM. Also, the “Ratio IC50” value in [6] is more than 137.9. The viability at 48 h, 3.13 µM in the series “in vitro” turned out to be 100%.
In the case of `CC(C)=CCC/C(C)=C/C1=NOC(c2ccccn2)O1` (configuration not stated), in the series on Entamoeba histolytica, 2980 nM corresponded to half-maximal inhibition (IC50). This molecule also came in with a logP in [7] of 3.96.
Taken in the same sequence, the figures for `CC(C)=CCC/C(C)=C/C1ON=C(c2ccccn2)O1` (configuration not stated) were 2220 nM and 4.08.
For `CC(C)=CCC/C(C)=C/C1=NOC(c2ccc3c(c2)OCO3)O1` (configuration not stated), in the series on Entamoeba histolytica, inhibition was half-maximal at 1480 nM (IC50). The molecule further displayed a logP in series [7] of 5.31.
Taken in the same sequence, the figures for `CC(C)=CCC/C(C)=C/C1=NOC(c2cccs2)O1` (configuration not stated) were 2900 nM and 5.13.
`c1coc(C2=NOC(c3ccc4c(c3)OCO4)O2)c1` (configuration not stated): the IC50 was 1050 nM in the series with Entamoeba histolytica and 200000 nM with H9c2 [5]. The viability at 48 h in [1] was not below 82%. The Activity result with H9c2 [2], with H9c2 [3] and in the series on H9c2 [4] was “Toxic” in each case. Further, in series [6], the “Ratio IC50” value worked out at 190.47. This molecule also yielded a logP in [7] of 2.97.
`CC(C)=CCC/C(C)=C/C1ON=C(c2ccco2)O1` (configuration not stated) displayed an IC50 in the series on Entamoeba histolytica of 2780 nM. This molecule also yielded a logP in series [7] of 5.25.
Consider `c1coc(C2ON=C(c3ccc4c(c3)OCO4)O2)c1` (configuration not stated), for which the IC50 was 1090 nM with Entamoeba histolytica and more than 200000 nM in the series with H9c2 [5]. For the same molecule, the viability at 48 h in series [1] was not below 82%. In addition, the Activity entry with H9c2 [2], in the series with H9c2 [3] and with H9c2 [4] was “Toxic” in each case. Further, the “Ratio IC50” value in [6] is given as more than 183.48. In series [7], this molecule yielded a lipophilicity (logP) of 2.45.
In the case of `CC(C)=CCC/C(C)=C/C1=NOC(C)(c2ccco2)O1` (configuration not stated), the concentration for half-maximal inhibition (IC50) with Entamoeba histolytica amounted to 2020 nM. Besides, the logP in [7] turned out to be 5.15.
Taken in the same sequence, the figures for `CC(C)=CCC/C(C)=C/C1=NOC(c2ccco2)O1` (configuration not stated) were 2420 nM and 4.61.
On to `CC(C)=CCC/C(C)=C/C1ON=C(c2ccc3c(c2)OCO3)O1` (configuration not stated), for which the midpoint of inhibition in the series on Entamoeba histolytica, the IC50, lay at 1390 nM. Moreover, the logP in [7] was 5.44.
Taken in the same sequence, the figures for `CC(C)=CCC/C(C)=C/C1=NOC(C)(c2ccccn2)O1` (configuration not stated) were 2250 nM and 4.5.
Turning to `CC1(c2ccccn2)ON=C(c2ccc3c(c2)OCO3)O1` (configuration not stated), the IC50 was 1000 nM with Entamoeba histolytica and more than 200000 nM in the series on H9c2 [5]. Also, in [1], the viability at 48 h is not below 82%. Further, the Activity result with H9c2 [2] and with H9c2 [3] was “Toxic” each time. Besides, in series [8], the viability at 48 h, 200 µM worked out at 88%. In addition, the “Ratio IC50” value in series [6] is more than 200. The molecule also yielded a logP in series [7] of 2.34.
Turning to `c1ccc(C2ON=C(c3ccc4c(c3)OCO4)O2)nc1` (configuration not stated), the results for the IC50 with Entamoeba histolytica and with H9c2 [5] were 1030 nM and 40000 nM, respectively. Also, the viability at 48 h in series [1] is not below 82%. Further, the Activity result with H9c2 [2], in the series on H9c2 [3] and with H9c2 [4] was “Toxic” in each case. Moreover, the “Ratio IC50” value in [6] stood at 38.83. In series [7], this molecule displayed a logP of 1.8.
The molecule `c1csc(C2ON=C(c3ccc4c(c3)OCO4)O2)c1` (configuration not stated) showed an IC50 with Entamoeba histolytica of 3500 nM. Moreover, the logP in series [7] was 2.97.
Consider `c1csc(C2=NOC(c3ccc4c(c3)OCO4)O2)c1` (configuration not stated), for which it took 2450 nM to reach half-maximal inhibition in the series with Entamoeba histolytica (IC50). Moreover, the logP in series [7] stood at 2.45.
